According to patent publication US12691112B2, “FGFR tyrosine kinase inhibitors for the treatment of urothelial carcinoma” (Janssen Pharmaceutica NV, priority 2019, dated 2026):
Like-named read-outs stand apart in the source and are kept apart here.

Tested on: subjects with metastatic or surgically unresectable urothelial cancer
Details: all-causality
Description: Study treatment was administered on 28-day cycles. […] Patients were randomized 1:1 to 28-day cycles to the following 2 regimens until a regimen was selected for further study: Regimen 1 (10 mg once daily intermittent (7 days on/7 days); Regimen 2 (6 mg once daily continuous). Randomization was stratified according to performance status (0 to 1 vs. 2), hemoglobin value (<10 vs. ≥10 g per dl), FGFR alteration type (mutation vs. fusion), prior treatment status (chemotherapy-resistant vs. chemotherapy naïve), and disease distribution (presence or absence of visceral [liver, lung, bone]metastases). Starting dose selection was based on phase 1 efficacy and tolerability.
Based on interim analysis and pharmacokinetic-pharmacodynamic modeling of serum phosphate levels, starting dose was increased to 8 mg per day continuous (Regimen 3). Thus, after interim analysis, this became a single-arm study. […] Treatment continued until disease progression or unacceptable adverse event(s) per investigator.
Safety was evaluated based on clinical laboratory tests, physical exams, electrocardiograms, and ophthalmology examinations. Adverse events and abnormalities were assessed by investigator and graded per NCI CTCAE v.4.0
Prophylactic measures were taken to minimize risk of common adverse events related to FGFR inhibition. To reduce risk of hyperphosphatemia, a low-phosphate diet was recommended for all patients (600 to 800 mg of dietary phosphate intake per day). To reduce the risk of skin effects, the application of alcohol-free emollient moisturizing cream and avoidance of unnecessary exposure to sunlight, soap, perfumed products, and hot baths was recommended. Patients were asked to keep their fingers and toes clean and nails trimmed to reduce risk of nail effects.
Additional ophthalmology examinations were performed if clinically indicated.

COc1cc(OC)cc(N(CCNC(C)C)c2ccc3ncc(-c4cnn(C)c4)nc3c2)c1 [erdafitinib, N-(3,5-dimethoxy-phenyl)-N′-(1-methylethyl)-N-[3-(1-methyl-1H-pyrazol-4-yl)quinoxalin-6-yl]ethane-1,2-diamine]
15 no.: Diarrhea, grade 2 (6 mg continuous, n = 78)
44 no.: Hyperphosphatemia, grade 1 (6 mg continuous, n = 78)
33 no.: Stomatitis, any grade (6 mg continuous, n = 78)
5 no.: Hematuria, grade 1 (6 mg continuous, n = 78) | Hyponatremia, grade ≥ 3 (6 mg continuous, n = 78) | Onycholysis, grade ≥ 3 (6 mg continuous, n = 78) | Oropharyngeal pain, grade 1 (6 mg continuous, n = 78) | Retinal detachment, grade 1 (6 mg continuous, n = 78) | Vision blurred, any grade (6 mg continuous, n = 78) | Abdominal pain, grade 1 (8 mg continuous, n = 99) | Arthralgia, grade 1 (8 mg continuous, n = 99) | Back pain, any grade (8 mg continuous, n = 99) | Blood creatinine increased, grade 1 (8 mg continuous, n = 99) | Blood creatinine increased, grade 2 (8 mg continuous, n = 99)
8 no.: Dry skin, grade 2 (6 mg continuous, n = 78) | Fatigue, grade 1 (6 mg continuous, n = 78) | Fatigue, grade 2 (6 mg continuous, n = 78) | Hyperphosphatemia, grade 2 (6 mg continuous, n = 78) | Insomnia, any grade (6 mg continuous, n = 78) | Onychomadesis, any grade (6 mg continuous, n = 78) | Oropharyngeal pain, any grade (6 mg continuous, n = 78) | Pyrexia, grade 1 (6 mg continuous, n = 78) | Retinal detachment, any grade (6 mg continuous, n = 78) | Weight decreased, any grade (6 mg continuous, n = 78) | Abdominal pain, any grade (8 mg continuous, n = 99) | Arthralgia, any grade (8 mg continuous, n = 99) | Aspartate aminotransferase increased, grade 1 (8 mg continuous, n = 99) | Constipation, grade 2 (8 mg continuous, n = 99)
2 no.: Dry eye, grade 2 (6 mg continuous, n = 78) | Dry mouth, grade ≥ 3 (6 mg continuous, n = 78) | Dyspnea, grade ≥ 3 (6 mg continuous, n = 78) | Hyponatremia, grade 1 (6 mg continuous, n = 78) | Insomnia, grade 2 (6 mg continuous, n = 78) | Insomnia, grade ≥ 3 (6 mg continuous, n = 78) | Onycholysis, grade 1 (6 mg continuous, n = 78) | Onychomadesis, grade 1 (6 mg continuous, n = 78) | Pain in extremity, grade 1 (6 mg continuous, n = 78) | Paronychia, grade 1 (6 mg continuous, n = 78) | Peripheral edema, grade 1 (6 mg continuous, n = 78) | Vomiting, grade 2 (6 mg continuous, n = 78) | Weight decreased, grade 2 (6 mg continuous, n = 78) | Weight decreased, grade ≥ 3 (6 mg continuous, n = 78) | Abdominal pain, grade 2 (8 mg continuous, n = 99) | Alanine aminotransferase increased, grade 2 (8 mg continuous, n = 99) | Alanine aminotransferase increased, grade ≥ 3 (8 mg continuous, n = 99) | Aspartate aminotransferase increased, grade 2 (8 mg continuous, n = 99) | Asthenia, grade 1 (8 mg continuous, n = 99)
14 no.: Pyrexia, any grade (6 mg continuous, n = 78)
4 no.: Decreased appetite, grade ≥ 3 (6 mg continuous, n = 78) | Dysgeusia, grade 2 (6 mg continuous, n = 78) | Fatigue, grade ≥ 3 (6 mg continuous, n = 78) | Hand-foot syndrome, grade 1 (6 mg continuous, n = 78) | Insomnia, grade 1 (6 mg continuous, n = 78) | Nausea, grade 2 (6 mg continuous, n = 78) | Urinary tract infection, grade ≥ 3 (6 mg continuous, n = 78) | Weight decreased, grade 1 (6 mg continuous, n = 78) | Anemia, grade ≥ 3 (8 mg continuous, n = 99) | Back pain, grade 1 (8 mg continuous, n = 99)
0 no.: Constipation, grade ≥ 3 (6 mg continuous, n = 78) | Diarrhea, grade ≥ 3 (6 mg continuous, n = 78) | Dry skin, grade ≥ 3 (6 mg continuous, n = 78) | Dysgeusia, grade ≥ 3 (6 mg continuous, n = 78) | Dyspepsia, grade ≥ 3 (6 mg continuous, n = 78) | Hand-foot syndrome, grade ≥ 3 (6 mg continuous, n = 78) | Hematuria, grade 2 (6 mg continuous, n = 78) | Hyperphosphatemia, grade ≥ 3 (6 mg continuous, n = 78) | Hypomagnesemia, grade 2 (6 mg continuous, n = 78) | Hypomagnesemia, grade ≥ 3 (6 mg continuous, n = 78) | Hyponatremia, grade 2 (6 mg continuous, n = 78) | Lacrimation increased, grade ≥ 3 (6 mg continuous, n = 78) | Nail dystrophy, grade ≥ 3 (6 mg continuous, n = 78) | Onychomadesis, grade ≥ 3 (6 mg continuous, n = 78) | Oropharyngeal pain, grade ≥ 3 (6 mg continuous, n = 78) | Paronychia, grade ≥ 3 (6 mg continuous, n = 78) | Retinal detachment, grade ≥ 3 (6 mg continuous, n = 78) | Urinary tract infection, grade 1 (6 mg continuous, n = 78) | Vomiting, grade ≥ 3 (6 mg continuous, n = 78) | Alopecia, grade ≥ 3 (8 mg continuous, n = 99) | Arthralgia, grade ≥ 3 (8 mg continuous, n = 99) | Aspartate aminotransferase increased, grade ≥ 3 (8 mg continuous, n = 99) | Back pain, grade ≥ 3 (8 mg continuous, n = 99) | Blood creatinine increased, grade ≥ 3 (8 mg continuous, n = 99) | Conjunctivitis, grade ≥ 3 (8 mg continuous, n = 99)
7 no.: Hyponatremia, any grade (6 mg continuous, n = 78) | Nail dystrophy, any grade (6 mg continuous, n = 78) | Stomatitis, grade ≥ 3 (6 mg continuous, n = 78) | Anemia, grade 2 (8 mg continuous, n = 99) | Asthenia, grade ≥ 3 (8 mg continuous, n = 99) | Conjunctivitis, grade 2 (8 mg continuous, n = 99)
3 no.: Dry eye, grade 1 (6 mg continuous, n = 78) | Dyspepsia, grade 2 (6 mg continuous, n = 78) | Dyspnea, grade 2 (6 mg continuous, n = 78) | Lacrimation increased, grade 2 (6 mg continuous, n = 78) | Oropharyngeal pain, grade 2 (6 mg continuous, n = 78) | Peripheral edema, grade 2 (6 mg continuous, n = 78) | Pyrexia, grade 2 (6 mg continuous, n = 78) | Pyrexia, grade ≥ 3 (6 mg continuous, n = 78) | Retinal detachment, grade 2 (6 mg continuous, n = 78) | Vision blurred, grade 1 (6 mg continuous, n = 78) | Arthralgia, grade 2 (8 mg continuous, n = 99)
6 no.: Dry eye, any grade (6 mg continuous, n = 78) | Dry mouth, grade 2 (6 mg continuous, n = 78) | Dysgeusia, grade 1 (6 mg continuous, n = 78) | Dyspepsia, grade 1 (6 mg continuous, n = 78) | Dyspnea, any grade (6 mg continuous, n = 78) | Hematuria, any grade (6 mg continuous, n = 78) | Hypomagnesemia, any grade (6 mg continuous, n = 78) | Hypomagnesemia, grade 1 (6 mg continuous, n = 78) | Nail dystrophy, grade 1 (6 mg continuous, n = 78) | Onycholysis, grade 2 (6 mg continuous, n = 78) | Onychomadesis, grade 2 (6 mg continuous, n = 78) | Pain in extremity, grade 2 (6 mg continuous, n = 78) | Peripheral edema, any grade (6 mg continuous, n = 78) | Alopecia, grade 2 (8 mg continuous, n = 99) | Conjunctivitis, grade 1 (8 mg continuous, n = 99)
9 no.: Dyspepsia, any grade (6 mg continuous, n = 78) | Hand-foot syndrome, grade 2 (6 mg continuous, n = 78) | Pain in extremity, any grade (6 mg continuous, n = 78) | Urinary tract infection, grade 2 (6 mg continuous, n = 78) | Vomiting, grade 1 (6 mg continuous, n = 78) | Anemia, grade 1 (8 mg continuous, n = 99)
31 no.: Dry mouth, any grade (6 mg continuous, n = 78)
16 no.: Nausea, any grade (6 mg continuous, n = 78)
28 no.: Constipation, any grade (8 mg continuous, n = 99)
19 no.: Constipation, grade 1 (8 mg continuous, n = 99)
13 no.: Decreased appetite, grade 2 (6 mg continuous, n = 78) | Hand-foot syndrome, any grade (6 mg continuous, n = 78) | Lacrimation increased, any grade (6 mg continuous, n = 78) | Onycholysis, any grade (6 mg continuous, n = 78) | Stomatitis, grade 1 (6 mg continuous, n = 78) | Stomatitis, grade 2 (6 mg continuous, n = 78) | Urinary tract infection, any grade (6 mg continuous, n = 78) | Alanine aminotransferase increased, grade 1 (8 mg continuous, n = 99) | Conjunctivitis, any grade (8 mg continuous, n = 99)
39 no.: Diarrhea, any grade (6 mg continuous, n = 78)
23 no.: Dry mouth, grade 1 (6 mg continuous, n = 78) | Alopecia, grade 1 (8 mg continuous, n = 99)
20 no.: Constipation, any grade (6 mg continuous, n = 78) | Fatigue, any grade (6 mg continuous, n = 78) | Anemia, any grade (8 mg continuous, n = 99) | Asthenia, any grade (8 mg continuous, n = 99)
29 no.: Decreased appetite, any grade (6 mg continuous, n = 78) | Alopecia, any grade (8 mg continuous, n = 99)
52 no.: Hyperphosphatemia, any grade (6 mg continuous, n = 78)
11 no.: Nausea, grade 1 (6 mg continuous, n = 78) | Vomiting, any grade (6 mg continuous, n = 78) | Asthenia, grade 2 (8 mg continuous, n = 99)
12 no.: Decreased appetite, grade 1 (6 mg continuous, n = 78) | Paronychia, any grade (6 mg continuous, n = 78)
24 no.: Diarrhea, grade 1 (6 mg continuous, n = 78)
1 no.: Conjunctivitis, grade ≥ 3 (6 mg continuous, n = 78) | Dry eye, grade ≥ 3 (6 mg continuous, n = 78) | Dyspnea, grade 1 (6 mg continuous, n = 78) | Hematuria, grade ≥ 3 (6 mg continuous, n = 78) | Nail dystrophy, grade 2 (6 mg continuous, n = 78) | Nausea, grade ≥ 3 (6 mg continuous, n = 78) | Pain in extremity, grade ≥ 3 (6 mg continuous, n = 78) | Peripheral edema, grade ≥ 3 (6 mg continuous, n = 78) | Vision blurred, grade 2 (6 mg continuous, n = 78) | Vision blurred, grade ≥ 3 (6 mg continuous, n = 78) | Abdominal pain, grade ≥ 3 (8 mg continuous, n = 99) | Back pain, grade 2 (8 mg continuous, n = 99)
17 no.: Alanine aminotransferase increased, any grade (8 mg continuous, n = 99)
10 no.: Constipation, grade 1 (6 mg continuous, n = 78) | Constipation, grade 2 (6 mg continuous, n = 78) | Dry skin, grade 1 (6 mg continuous, n = 78) | Dysgeusia, any grade (6 mg continuous, n = 78) | Lacrimation increased, grade 1 (6 mg continuous, n = 78) | Paronychia, grade 2 (6 mg continuous, n = 78) | Aspartate aminotransferase increased, any grade (8 mg continuous, n = 99) | Blood creatinine increased, any grade (8 mg continuous, n = 99)
18 no.: Dry skin, any grade (6 mg continuous, n = 78)
